Laboratory results from PubChem BioAssay (NCI).
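Cells were grown in 96-well plates and exposed to each compound for 48 hours at five concentrations; endpoints were interpolated linearly between bracketing concentrations, or set to the highest concentration if not reached. The concentration for 50% growth inhibition is given as GI50. TGI is the concentration that stops growth completely.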

Assays:
Experiment in all cases: growth of human tumour cells (NCI), 48 h
RXF 393 renal = test system: RXF 393 renal
SF-268 CNS = test system: SF-268 CNS
COLO 205 colon = test system: COLO 205 colon
EKVX NSCLC = test system: EKVX NSCLC
NCI-H226 lung = test system: NCI-H226 lung
SN12C renal = test system: SN12C renal
SW-620 colon = test system: SW-620 colon
U251 CNS = test system: U251 CNS
CCRF-CEM leukemia = test system: CCRF-CEM leukemia
K-562 leukemia = test system: K-562 leukemia

Structure (SMILES) | GI50 (RXF 393 renal) | TGI (RXF 393 renal) | GI50 (SF-268 CNS) | TGI (SF-268 CNS) | GI50 (COLO 205 colon) | TGI (COLO 205 colon) | GI50 (EKVX NSCLC) | TGI (EKVX NSCLC) | GI50 (NCI-H226 lung) | TGI (NCI-H226 lung) | GI50 (SN12C renal) | TGI (SN12C renal) | GI50 (SW-620 colon) | TGI (SW-620 colon) | GI50 (U251 CNS) | TGI (U251 CNS) | GI50 (CCRF-CEM leukemia) | TGI (CCRF-CEM leukemia) | GI50 (K-562 leukemia) | TGI (K-562 leukemia)
Cc1ccc2oc(=O)cc(/C(=C3/C=CC=N3)c3ccc[nH]3)c2c1 | 0.256 µM | 0.748 µM | 0.526 µM | 6.73 µM | 1.49 µM | 3.49 µM | 0.435 µM | 4.51 µM | 0.753 µM | 4.58 µM | 0.672 µM | 3.36 µM | 0.396 µM | 13.7 µM | 0.319 µM | 1.57 µM | 0.29 µM | 4.01 µM | – | –
CC(C)N(O)C(=N)c1ccccc1 | – | > 100 µM | – | > 100 µM | – | – | – | > 100 µM | – | > 100 µM | – | > 100 µM | – | > 100 µM | – | > 100 µM | – | – | – | –
O=c1c2ccc(S(=O)(=O)c3ccc4c(=O)n5c6ccccc6nc5c5cccc3c45)c3cccc(c32)c2nc3ccccc3n12 | – | 34.5 µM | – | > 100 µM | – | > 100 µM | – | > 100 µM | – | > 100 µM | – | > 100 µM | – | – | – | 35.5 µM | – | – | – | –
COc1cccc(/C=C/C(=O)c2ccc(SC)cc2)c1OC | 3.9 µM | 11.7 µM | 20.2 µM | 42.3 µM | 22.6 µM | 45 µM | 18.8 µM | 35.6 µM | – | – | 14.7 µM | 29.2 µM | 18.8 µM | 35.7 µM | 10.4 µM | 24 µM | 14.2 µM | 97.5 µM | 4.97 µM | 64.2 µM
O=C(/C=C\c1cccc2ccccc12)c1ccc(F)cc1 | – | – | – | 30.8 µM | – | 35.3 µM | – | 35.2 µM | – | > 100 µM | – | 32.3 µM | – | 20.4 µM | – | 29.9 µM | – | 41.8 µM | – | 33.2 µM
CCCCCOCC(O)CO (stereo not given) | – | > 100 µM | – | > 100 µM | – | > 100 µM | – | > 100 µM | – | > 100 µM | – | > 100 µM | – | > 100 µM | – | > 100 µM | – | – | – | –
Cc1ccc(-c2nc3ccccc3c(=O)n2NCC2(O)OCC(O)C(O)C2O)cc1 (stereo not given) | – | > 100 µM | – | > 100 µM | – | > 100 µM | – | > 100 µM | – | – | – | > 100 µM | – | > 100 µM | – | > 100 µM | – | > 100 µM | – | > 100 µM
N#Cc1c(NCc2ccccc2)nc(NCc2ccccc2)c(C#N)c1-c1ccc(O)cc1 | 39.1 µM | > 100 µM | 27.3 µM | > 100 µM | 36.3 µM | > 100 µM | 48.5 µM | > 100 µM | 14.3 µM | 67.1 µM | 5.99 µM | 53.2 µM | 36.1 µM | > 100 µM | 19.2 µM | 54.5 µM | 27.4 µM | > 100 µM | – | –
COc1ccc(/C=C2\CN(C(=O)C(Cl)Cl)C/C(=C\c3ccc(OC)cc3)C2=O)cc1 | 1.11 µM | 2.37 µM | 2.95 µM | > 100 µM | – | – | – | – | 2.47 µM | 7.65 µM | – | – | 0.351 µM | 1.78 µM | – | – | 0.528 µM | > 100 µM | 0.343 µM | > 100 µM
CN1CN(C2OC(CO)C(O)C2O)c2nc(N)[nH]c(=O)c21 (stereo not given) | – | > 100 µM | – | > 100 µM | – | > 100 µM | – | > 100 µM | – | > 100 µM | – | > 100 µM | – | > 100 µM | – | > 100 µM | – | – | – | > 100 µM
CC1=CC(C)=NN=C(N)N1S(=O)(=O)c1cc(C)c(Cl)cc1SCc1ccccc1 | – | – | 35.1 µM | > 100 µM | 27.9 µM | > 100 µM | 6.08 µM | > 100 µM | 58.5 µM | > 100 µM | 32.2 µM | > 100 µM | 24.8 µM | > 100 µM | 16.8 µM | > 100 µM | 9.15 µM | > 100 µM | 9.22 µM | > 100 µM
CCC(=O)N1C(=O)OCC1C(C)C (stereo not given) | – | > 100 µM | – | > 100 µM | – | > 100 µM | – | > 100 µM | – | – | – | > 100 µM | – | > 100 µM | – | > 100 µM | – | > 100 µM | – | > 100 µM
N#CC(C(=O)C(=O)Nc1ccccc1)c1ccccc1 (stereo not given) | – | – | – | > 100 µM | – | – | – | > 100 µM | – | > 100 µM | – | > 100 µM | – | > 100 µM | – | > 100 µM | – | > 100 µM | – | > 100 µM
CCC[CH2][Sn]([CH2]CCC)([O]c1cccc2cccnc12)[O]c1cccc2cccnc12 | – | – | 0.203 µM | 0.575 µM | 0.482 µM | 1.7 µM | 0.34 µM | 1.22 µM | – | – | 0.177 µM | 0.403 µM | 0.179 µM | 0.429 µM | 0.198 µM | 0.368 µM | 0.0317 µM | 0.313 µM | 0.0973 µM | 0.523 µM
CC(C)N1CCN(c2ccncc2S(=O)(=O)N2CCCCC2)CC1 | – | > 100 µM | – | > 100 µM | – | > 100 µM | – | > 100 µM | – | > 100 µM | – | > 100 µM | – | > 100 µM | – | > 100 µM | – | – | – | > 100 µM
COc1cc(OC)c(C(=O)c2cccs2)cc1N | – | > 100 µM | – | > 100 µM | – | > 100 µM | – | > 100 µM | – | – | – | > 100 µM | – | > 100 µM | – | > 100 µM | – | > 100 µM | – | > 100 µM
C[C@]12CCC(=O)C(OC(=O)c3ccc([N+](=O)[O-])cc3)=C1CCC2=O | – | > 100 µM | – | > 100 µM | – | > 100 µM | – | > 100 µM | – | > 100 µM | – | > 100 µM | – | > 100 µM | – | > 100 µM | – | > 100 µM | – | –
O=S(=O)(CCN1CCOCC1)Nc1cc(-c2ccc3ncnc(Nc4ccc(F)c(Cl)c4)c3c2)cnc1Cl | 0.239 µM | 1.35 µM | 0.407 µM | 27.4 µM | – | – | 0.282 µM | 3.64 µM | 0.584 µM | 26.4 µM | 0.391 µM | > 100 µM | 1.3 µM | 15.8 µM | 0.909 µM | 10.5 µM | 0.455 µM | > 100 µM | 3.27 µM | > 100 µM
COc1ccc(/C(=N\NC(=O)NN)C(c2ccc(OC)cc2)C2(O)C(=O)Nc3c(Cl)cc(Cl)cc32)cc1 (stereo not given) | – | > 100 µM | – | > 100 µM | – | > 100 µM | – | > 100 µM | – | > 100 µM | – | > 100 µM | – | > 100 µM | – | > 100 µM | – | > 100 µM | – | –
